Test results taken from article PMC8741576 (Molecular Diversity, 2022).
Like-named read-outs stand apart in the source and are kept apart here.

Assays:
[1] = system: NCI-H460 lung carcinoma cells; experiment: Antiproliferative screening, MTS cell viability assay; type: cell-based; settings: Homo sapiens
[2] = system: LN-229 glioblastoma cells; experiment: as above; type: cell-based; settings: Homo sapiens
[3] = system: HL-60 acute myeloid leukemia cells; experiment: Antiproliferative screening, IncuCyte cell growth; type: cell-based; settings: Homo sapiens
[4] = system: Capan-1 pancreatic adenocarcinoma cells; experiment: Antiproliferative screening, MTS cell viability assay; type: cell-based; settings: Homo sapiens
[5] = system: HEL 299 normal human lung fibroblasts; experiment: Antiproliferative screening on noncancerous cells; settings: for IC50: Homo sapiens, HEL 299, read-out: IC50 HEL 299; for Cytotoxicity against noncancerous cells in words: HEL 299
[6] = system: K-562 chronic myeloid leukemia cells; experiment: Antiproliferative screening, IncuCyte cell growth; type: cell-based; settings: Homo sapiens
[7] = system: DND-41 acute lymphoblastic leukemia cells; experiment: Antiproliferative screening, IncuCyte cell growth; type: cell-based; settings: Homo sapiens
[8] = system: HCT-116 colorectal carcinoma cells; experiment: Antiproliferative screening, MTS cell viability assay; type: cell-based; settings: Homo sapiens
[9] = system: Z-138 non-Hodgkin lymphoma cells; experiment: Antiproliferative screening, IncuCyte cell growth; type: cell-based; settings: Homo sapiens
[10] = in vitro; settings: human
[11] = NCI-H460, 72 h, read-out: IC50 NCI-H460
[12] = LN-229, 72 h, read-out: IC50 LN-229
[13] = HL-60, 72 h, read-out: IC50 HL-60
[14] = CAPAN-1, 72 h, read-out: IC50 Capan-1
[15] = K562, 72 h, read-out: IC50 K-562
[16] = DND41, 72 h, read-out: IC50 DND-41
[17] = HCT-116, 72 h, read-out: IC50 HCT-116
[18] = Z-138, 72 h, read-out: IC50 Z-138
[19] = NCI-H460, read-out: IC50 NCI-H460
[20] = CAPAN-1, read-out: IC50 Capan-1
[21] = HCT-116, read-out: IC50 HCT-116

Structure (SMILES): O=C(NCCCCNc1ccnc2cc(Cl)ccc12)c1ccccc1NCc1ccccc1 [Compound 1, 2-(Benzylamino)-N-{4-[(7-chloroquinolin-4-yl)amino]butyl}benzamide]
- IC50 [1, 11]: > 100 µM
- IC50 [2, 12]: 53.5 ± 12.2 µM
- IC50 [3, 13]: > 100 µM
- IC50 [4, 14]: 57.6 ± 14.6 µM
- IC50 [5]: 8 ± 4.4 µM
- IC50 [6, 15]: 55.7 ± 10 µM
- IC50 [7, 16]: > 100 µM
- IC50 [8, 17]: > 100 µM
- IC50 [9, 18]: > 100 µM

Structure (SMILES): CC(C)(C)OC(=O)Nc1cc(Cl)ccc1C(=O)NCCCCNc1ccnc2cc(Cl)ccc12 [Compound 2, tert-Butyl {5-chloro-2-[[4-[(7-chloroquinolin-4-yl)amino]butyl]carbamoyl]phenyl}carbamate]
- IC50 [1, 11]: 21.2 ± 10 µM
- IC50 [2, 12]: 30.1 ± 2.1 µM
- IC50 [3, 13]: 41.5 ± 17 µM
- IC50 [4, 14]: 20.4 ± 9 µM
- Cytotoxicity against noncancerous cells in words [5]: no cytotoxicity against noncancerous cells
- IC50 [5]: > 100 µM
- IC50 [6, 15]: 54.5 ± 18.5 µM
- IC50 [7, 16]: 46.2 ± 1.9 µM
- IC50 [8, 17]: 32.4 ± 20 µM
- IC50 [9, 18]: 28.6 ± 14.6 µM

Structure (SMILES): CC(C)(C)OC(=O)Nc1ccc(Br)cc1C(=O)NCCCCNc1ccnc2cc(Cl)ccc12 [Compound 3, tert-Butyl {4-bromo-2-[[4-[(7-chloroquinolin-4-yl)amino]butyl]carbamoyl]phenyl}carbamate]
- IC50 [1, 11]: 69.3 ± 30.7 µM
- IC50 [2, 12]: 48.4 ± 20 µM
- IC50 [3, 13]: 60.5 ± 17 µM
- IC50 [4, 14]: 40.6 ± 4.2 µM
- Cytotoxicity against noncancerous cells in words [5]: no cytotoxicity against noncancerous cells
- IC50 [5]: > 100 µM
- IC50 [6, 15]: 51.2 ± 9.3 µM
- IC50 [7, 16]: 51.3 ± 4.4 µM
- IC50 [8, 17]: 66.1 ± 30 µM
- IC50 [9, 18]: 55.2 ± 9.2 µM

Structure (SMILES): COc1cc(NC(C)CCCNC(=O)c2ccccc2NCc2ccccc2)c2ncccc2c1 (stereo not drawn) [Compound 4, 2-(Benzylamino)-N-{4-[(6-methoxyquinolin-8-yl)amino]pentyl}benzamide]
- IC50 [1, 11]: > 100 µM
- IC50 [2, 12]: > 100 µM
- IC50 [3, 13]: > 100 µM
- IC50 [4, 14]: > 100 µM
- IC50 [5]: > 100 µM
- IC50 [6, 15]: > 100 µM
- IC50 [7, 16]: > 100 µM
- IC50 [8, 17]: > 100 µM
- IC50 [9, 18]: > 100 µM

Structure (SMILES): COc1cc(NC(C)CCCNC(=O)c2ccc(Cl)cc2NC(=O)OC(C)(C)C)c2ncccc2c1 (stereo not drawn) [Compound 5, tert-Butyl {5-chloro-2-[[4-[(6-methoxyquinolin-8-yl)amino]pentyl]carbamoyl]phenyl}carbamate]
- IC50 [1, 11]: > 100 µM
- IC50 [2, 12]: > 100 µM
- IC50 [3, 13]: > 100 µM
- IC50 [4, 14]: > 100 µM
- IC50 [5]: > 100 µM
- IC50 [6, 15]: > 100 µM
- IC50 [7, 16]: > 100 µM
- IC50 [8, 17]: > 100 µM
- IC50 [9, 18]: > 100 µM

Structure (SMILES): COc1cc(NC(C)CCCNC(=O)c2cc(Br)ccc2NC(=O)OC(C)(C)C)c2ncccc2c1 (stereo not drawn) [Compound 6, tert-Butyl {4-bromo-2-[[4-[(6-methoxyquinolin-8-yl)amino]pentyl]carbamoyl]phenyl}carbamate]
- IC50 [1, 11]: > 100 µM
- IC50 [2, 12]: > 100 µM
- IC50 [3, 13]: > 100 µM
- IC50 [4, 14]: > 100 µM
- IC50 [5]: > 100 µM
- IC50 [6, 15]: > 100 µM
- IC50 [7, 16]: > 100 µM
- IC50 [8, 17]: > 100 µM
- IC50 [9, 18]: > 100 µM

Structure (SMILES): Cc1nc(CNC(=O)c2ccccc2NCc2ccccc2)cc2c1[nH]c1ccccc12 [Compound 7, 2-(Benzylamino)-N-[(1-methyl-9H-pyrido[3,4-b]indol-3-yl)methyl]benzamide]
- IC50 [1, 11]: 28.4 ± 4 µM
- IC50 [2, 12]: 35.8 ± 9.3 µM
- IC50 [3, 13]: 66.2 ± 18.3 µM
- IC50 [4, 14]: 27.5 ± 8.1 µM
- IC50 [5]: 50.9 ± 2.7 µM
- IC50 [6, 15]: 90.7 ± 18.5 µM
- IC50 [7, 16]: 53.5 ± 6.7 µM
- IC50 [8, 17]: 34.6 ± 6 µM
- IC50 [9, 18]: 21 ± 10.1 µM

Structure (SMILES): Cc1nc(CNC(=O)c2ccc(Cl)cc2NC(=O)OC(C)(C)C)cc2c1[nH]c1ccccc12 [Compound 8, tert-Butyl {5-chloro-2-[[(1-methyl-9H-pyrido[3,4-b]indol-3-yl)methyl]carbamoyl]phenyl}carbamate]
- IC50 [1, 11]: 8.3 ± 4.3 µM
- IC50 [2, 12]: 20.8 ± 13.8 µM
- IC50 [3, 13]: 6.7 ± 0.2 µM
- IC50 [4, 14]: 6.5 ± 2.9 µM
- IC50 [5]: 7.1 ± 1.8 µM
- IC50 [6, 15]: 29.1 ± 21.3 µM
- IC50 [7, 16]: 32.1 ± 20.8 µM
- IC50 [8, 17]: 28.9 ± 24.1 µM
- IC50 [9, 18]: 8.2 ± 1.9 µM

Structure (SMILES): Cc1nc(CNC(=O)c2cc(Br)ccc2NC(=O)OC(C)(C)C)cc2c1[nH]c1ccccc12 [Compound 9, tert-Butyl {4-bromo-2-[[(1-methyl-9H-pyrido[3,4-b]indol-3-yl)methyl]carbamoyl]phenyl}carbamate]
- IC50 [1, 11]: 3.2 ± 1.8 µM
- IC50 [2, 12]: 8.3 ± 3.1 µM
- IC50 [3, 13]: 10.8 ± 3.3 µM
- IC50 [4, 14]: 5.8 ± 3 µM
- IC50 [5]: 7.5 ± 1 µM
- IC50 [6, 15]: 63.1 ± 36.9 µM
- IC50 [7, 16]: 12.5 ± 6.9 µM
- IC50 [8, 17]: 32.9 ± 7.9 µM
- IC50 [9, 18]: 4.1 ± 1.8 µM

Structure (SMILES): COc1cc(NC(C)CCCNC(=O)c2ccc(Cl)cc2N)c2ncccc2c1 (stereo not drawn) [Compound 15, 2-Amino-4-chloro-N-{4-[(6-methoxyquinolin-8-yl)amino]pentyl}benzamide]
- IC50 [1, 11]: > 100 µM
- IC50 [2, 12]: > 100 µM
- IC50 [3, 13]: > 100 µM
- IC50 [4, 14]: > 100 µM
- IC50 [5]: > 100 µM
- IC50 [6, 15]: > 100 µM
- IC50 [7, 16]: > 100 µM
- IC50 [8, 17]: > 100 µM
- IC50 [9, 18]: > 100 µM

Structure (SMILES): Cc1nc(CNC(=O)c2ccccc2N)cc2c1[nH]c1ccccc12 [Compound 17, 2-Amino-N-[(1-methyl-9H-pyrido[3,4-b]indol-3-yl)methyl]benzamide]
- IC50 [1, 11]: 54.8 ± 5.9 µM
- IC50 [2, 12]: 41 ± 0.3 µM
- IC50 [3, 13]: 44 ± 8.4 µM
- IC50 [4, 14]: 31.4 ± 1.9 µM
- IC50 [5]: 32.8 ± 3.3 µM
- IC50 [6, 15]: 52 ± 5.3 µM
- IC50 [7, 16]: 61.5 ± 2.1 µM
- IC50 [8, 17]: 48.4 ± 3.8 µM
- IC50 [9, 18]: 35.1 ± 4.5 µM

Structure (SMILES): Cc1nc(CNC(=O)c2ccc(Cl)cc2N)cc2c1[nH]c1ccccc12 [Compound 18, 2-Amino-4-chloro-N-[(1-methyl-9H-pyrido[3,4-b]indol-3-yl)methyl]benzamide]
- IC50 [1, 11]: 43.8 ± 8.4 µM
- IC50 [2, 12]: 44 ± 7.6 µM
- IC50 [3, 13]: > 100 µM
- IC50 [4, 14]: 56.3 ± 24.1 µM
- IC50 [5]: > 100 µM
- IC50 [6, 15]: > 100 µM
- IC50 [7, 16]: > 100 µM
- IC50 [8, 17]: 55 ± 17.7 µM
- IC50 [9, 18]: > 100 µM

Structure (SMILES): Cc1nc(CNC(=O)c2cc(Br)ccc2N)cc2c1[nH]c1ccccc12 [Compound 19, 2-Amino-5-bromo-N-[(1-methyl-9H-pyrido[3,4-b]indol-3-yl)methyl]benzamide]
- IC50 [1, 11]: 55 ± 5 µM
- IC50 [2, 12]: 46.2 ± 7.5 µM
- IC50 [3, 13]: 66.3 ± 34 µM
- IC50 [4, 14]: 38.9 ± 5.8 µM
- IC50 [5]: 82.6 ± 17.4 µM
- IC50 [6, 15]: 64.9 ± 4.9 µM
- IC50 [7, 16]: 68.3 ± 12.2 µM
- IC50 [8, 17]: 60.8 ± 31 µM
- IC50 [9, 18]: 55.5 ± 12.1 µM

Structure (SMILES): CC(=O)O[C@@]12CO[C@@H]1C[C@H](O)[C@@]1(C)C(=O)[C@H](O)C3=C(C)[C@@H](OC(=O)[C@H](O)[C@@H](NC(=O)OC(C)(C)C)c4ccccc4)C[C@@](O)([C@@H](OC(=O)c4ccccc4)[C@H]21)C3(C)C [DTX, docetaxel, reference compound]
- IC50 [1, 19]: 0.0271 ± 0.003 µM
- IC50 ([2]; LN-229, read-out: IC50 LN-229): 0.0018 ± 0.003 µM
- IC50 ([3]; HL-60, read-out: IC50 HL-60): 0.0137 ± 0.003 µM
- IC50 [4, 20]: 0.01 ± 0.003 µM
- IC50 ([6]; K562, read-out: IC50 K-562): 0.0089 ± 0.003 µM
- IC50 ([7]; DND41, read-out: IC50 DND-41): 0.0055 ± 0.003 µM
- IC50 [8, 21]: 0.0025 ± 0.003 µM
- IC50 ([9]; Z-138, read-out: IC50 Z-138): 0.0025 ± 0.003 µM

Structure (SMILES): N#C[C@@]1(c2ccc3c(N)ncnn23)O[C@H](CO)[C@@H](O)[C@H]1O [GS-441524]
- CC50 [10]: > 100 µM

Structure (SMILES): CN[C@@H]1C[C@H]2O[C@@](C)([C@@H]1OC)n1c3ccccc3c3c4c(c5c6ccccc6n2c5c31)C(=O)NC4 [STS, staurosporine, reference compound]
- IC50 [1, 19]: 0.0384 ± 0.003 µM
- IC50 ([3]; HL-60, read-out: IC50 HL-60): 0.0598 ± 0.003 µM
- IC50 [4, 20]: 0.0382 ± 0.003 µM
- IC50 [8, 21]: 0.0687 ± 0.003 µM
